Tests used:
[1] = LC retention time (Atlantis T3, 5-95% MeOH gradient, 0.1% formic acid); higher = more retained / less polar
Procedure, shortened: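 Retention times were recorded for reference standards (purity ≥ 95%) on a polar reversed-phase C18 column (Atlantis T3, 3 × 150 mm, 3 μm) at 0.3 mL/min. Elution used water and methanol, each with 0.1% formic acid, in a gradient from 5 to 95% methanol over 17.5 min. Detection was by high-resolution tandem mass spectrometry on a QExactive Plus, with positive and negative electrospray in separate runs. Peaks were found and integrated in TraceFinder (5 ppm tolerance, at least three points per peak) and then checked by hand.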

[2] = absolute recovery over mixed-bed multilayer solid-phase extraction; higher = better recovery; details: enrichment method: SPE
Procedure, shortened: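 Absolute recovery rests on background-corrected response ratios of pre- versus post-spiked samples, averaged over at least two replicates. Wastewater (100–250 mL, pH 6.5, glass-fibre filtered) was spiked at 1000 ng/L and unfiltered nanopure water (1000 mL) at 200 ng/L, before or after three-layer mixed-bed cartridge extraction or not at all, with exceptions for some classes. Analysis after internal standard addition used liquid chromatography with high-resolution tandem mass spectrometry in both ionisation modes.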

[3] = absolute recovery over vacuum-assisted evaporative concentration; higher = better recovery; details: enrichment method: VEC
Procedure, shortened: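 After spiking with standards before concentration, after concentration or not at all, at 1000 ng/L for wastewater or 200 ng/L for nanopure and surface water with class- and compound-specific adjustments, samples of 6 mL influent, 15 mL effluent and 60 mL surface or nanopure water were evaporated at 55 °C and 20 mbar to about 0.3 mL. They were brought to 0.4 mL, centrifuged, given internal standards and analysed by LC-HRMS/MS. Absolute recovery, (response ratio pre − unspiked)/(post − unspiked) × 100, used averages of ≥ 2 replicates.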

Compound | LC retention time [1] [min] | absolute recovery ([2]; nanopure water) [%] | absolute recovery ([2]; surface water) [%] | absolute recovery ([2]; wastewater effluent) [%] | absolute recovery ([2]; wastewater influent) [%] | absolute recovery ([3]; wastewater effluent) [%] | absolute recovery ([3]; wastewater influent) [%]
Cc1cccc(C)c1OCC(C)[NH3+] (stereo unspecified) [Mexiletine] | 13.2 | 69.1 | 68.7 | 67.6 | 80.7 | 97.3 | 99.1
COC(=O)[N-]S(=O)(=O)c1ccc(N)cc1 [Asulam] | 10.5 | 101 | 34.2 | 42.6 | 43.9 | 95.8 | 88.4
COc1cccc(C2(O)CCCCC2C[NH3+])c1 (stereo unspecified) [N-Bisdesmethyl-Tramadol] | 12.8 | 50.1 | 47.4 | 46.3 | 70.2 | 105 | 98.5
C[NH+]=CNc1ccc(C)cc1C [N-(2-4-dimethylphenyl)-N-methylformamidine] | 11.1 | 35.1 | 27.7 | 47.9 | 52.5 | 76.9 | 79.1
COC(=O)c1ccc(C(F)(F)F)nc1S(=O)(=O)[N-]C(=O)Nc1nc(OC)cc(OC)n1 [Flupyrsulfuron-methyl-] | 19.2 | 98.2 | 97.5 | 93.6 | 89.3 | 65.8 | 59.1
CC(C)(Oc1ccc(C(=O)c2ccc(Cl)cc2)cc1)C(=O)[O-] [Fenofibric-acid] | 20.8 | 98.5 | 86 | 82.7 | 99 | 106 | 102
C#CCOc1ccc(CCNC(=O)C(OCC#C)c2ccc(Cl)cc2)cc1OC (stereo unspecified) [Mandipropamid] | 19.2 | 105 | 117 | 110 | 93.5 | 110 | 112
Nc1ccn(C2OC(CO)C(O)C2(F)F)c(=O)n1 (stereo unspecified) [Gemcitabin] | 6.58 | 86.7 | 94.5 | 94.3 | 91.1 | 88.8 | 12.8
CC=CC(=O)N(CC)C(CC)C(=O)N(C)C (stereo unspecified) [Crotethamide] | 15.9 | 106 | 94.6 | 86.1 | 121 | 97.5 | 94.6
CC(C)=NOCCOC(=O)C(C)Oc1ccc(Oc2cnc3cc(Cl)ccc3n2)cc1 (stereo unspecified) [Propaquizafop] | 22.4 | 79.1 | 91.4 | 93.7 | 80.9 | 68.4 | 13.2
C=CC(=O)OCCOC(=O)CCC(=O)[O-] [Mono(2-acryloyloxyethyl)-succinate] | 13.7 | 37.8 | 71.7 | 61.7 | 53.1 | 79.2 | 31.6
CC(=O)Nc1c(I)c(C(=O)[O-])c(I)c(C(=O)NCCO)c1I [Ioxitalamic-acid] | 9.16 | 59.6 | 65.7 | 76 | 61.4 | 103 | 101
CCNc1nc(Cl)nc(NC(C)C)n1 [Atrazin] | 18.5 | 96.7 | 98.1 | 93.8 | 91.5 | 99.3 | 97.7
CC(C)[NH2+]CC(O)COc1ccc(CC(=O)[O-])cc1 (stereo unspecified) [Atenolol-acid (=Metoprolol acid)] | 10.5 | 97.3 | 98.9 | 92.1 | 75.4 | 108 | 104
CNC(=C[N+](=O)[O-])NCCS(=O)Cc1ccc(C[NH+](C)C)o1 (stereo unspecified) [Ranitidin-S-oxid] | 6.08 | 72.3 | 74.2 | 67.2 | 81.4 | 83.5 | 142
CCC1OC(=O)C(C)C(OC2CC(C)(OC)C(O)C(C)O2)C(C)C(OC2OC(C)CC([NH2+]C)C2O)C(C)(O)CC(C)C[NH+](C)C(C)C(O)C1(C)O (stereo unspecified) [N-Desmethyl-Azithromycin] | 13.1 | 104 | 98.1 | 98.7 | 121 | 117 | 94.9
O=C(NCCN1CCOCC1)c1ccc(Cl)cc1 [Moclobemid] | 11.6 | 91.4 | 100 | 90.8 | 84.5 | 105 | 94
O=C1NC(=O)C(c2ccccc2)(c2ccccc2)N1 [Phenytoin] | 17 | 90.8 | – | – | – | 98.4 | 112
CC[NH+](CC)CC(=O)Nc1c(C)cccc1C [Lidocain] | 11.2 | 97.1 | 96.5 | 93.5 | 95 | 101 | 99.4
COc1cc([N-]S(=O)(=O)c2ccc(N)cc2)nc(OC)n1 [Sulfadimethoxin] | 14.9 | 95.1 | 92 | 90.3 | 90 | 104 | 98.4
COc1cc(OC)nc(NC(=O)[N-]S(=O)(=O)N(C)S(C)(=O)=O)n1 [Amidosulfuron] | 18 | 94.7 | 101 | 93.3 | 111 | 112 | 98.2
[NH3+]C(Cc1cc(I)c(O)c(I)c1)C(=O)[O-] [3-5-Diiodo-L-tyrosine] | 13.2 | 69.5 | 39.2 | 55.8 | 74.5 | 90.5 | 96.4
CON=C(C(=O)[O-])c1ccccc1COc1ccccc1C [Kresoxim-methyl-acid] | 20.1 | 85.5 | 71.8 | 81.5 | 89.8 | 97.4 | 134
CCC(C)OC(=O)N1CCCCC1CCO (stereo unspecified) [Picaridin (=Icaridin)] | 19 | 97.2 | 91.8 | 93.9 | 96.2 | 94.9 | 99.4
O=S(=O)([O-])c1ccc2ccccc2c1 [2-Naphthalenesulfonic-acid] | 17.2 | – | – | 92.6 | – | 114 | 88.2
CC(=O)N(C)c1ccccc1 [N-Methylacetanilid] | 15.5 | 84.7 | 77.4 | 84.9 | 144 | 74.1 | 81.1
